Source: article PMC6059979 (European journal of medicinal chemistry, 2018)
Peptide text beside a SMILES is read from it. * marks the point of attachment. Palmitoyl = CCCCCCCCCCCCCCCC(=O)*

Tests used:
Assay type in all cases: cell-based
[1] = test system: Methicillin Resistant Staphylococcus aureus (MRSA, ATCC 33591); details: ATCC 33591, 18 h
[2] = test system: Escherichia coli (E. coli, JM109); details: JM109, 18 h
[3] = test system: Methicillin Resistant Staphylococcus epidermidis (MRSE, RP62A); details: Methicillin Resistant (, RP62A, 18 h)
[4] = test system: Vancomycin Resistant Enterococcus faecalis (E. faecalis, ATCC 700802); details: ATCC 700802, 18 h
[5] = test system: Klebsiella pneumoniae (K. pneumoniae, ATCC 13383); details: ATCC 13383, 18 h

CCCCCCCCCCCCCCCC(=O)N[C@@H](CCCCN)C(=O)N[C@@H](Cc1ccccc1)C(=O)N[C@@H](CCCCN)C(N)=O [C16-K-F-K] (Palmitoyl-Lys-Phe-Lys-NH2)
>25 µg/mL: MIC MRSA [1] | MIC E. coli [2] | MIC MRSE [3] | MIC E. faecalis [4] | MIC K. pneumoniae [5]
